Source: ChEMBL document CHEMBL1140148, “Structure-activity studies on a series of a 2-aminopyrimidine-containing histamine H4 receptor ligands” (J Med Chem, 2008)

How the values were obtained:
Histamine H3 receptor [1] = target: Histamine H3 receptor (Rattus norvegicus, UniProt Q9QYN8); assay: Binding affinity to rat histamine H3 receptor
Histamine H4 receptor [2] = target: T1, Histamine H4 receptor (Homo sapiens, UniProt Q9H3N8); assay: Displacement of [3H]histamine from human histamine H4 receptor expressed in HEK293 cells; format: cell-based
Histamine H3 receptor [3] = target: Histamine H3 receptor (Homo sapiens, UniProt Q9Y5N1); assay: Binding affinity to human histamine H3 receptor
Histamine H4 receptor [4] = target: T2, Histamine H4 receptor (Rattus norvegicus, UniProt Q91ZY1); assay: Agonist activity at rat histamine H4 receptor expressed in HEK293 cells coexpressing Gqi5 protein assessed as calcium flux by FLIPR assay; format: functional, cell-based
Histamine H4 receptor [5] = target: Histamine H4 receptor (Mus musculus, UniProt Q91ZY2); assay: Agonist activity at mouse histamine H4 receptor expressed in HEK293 cells coexpressing Gqi5 protein assessed as calcium flux by FLIPR assay; format: functional, cell-based
Brain = assay: Drug level in rat brain assessed as metabolism to 4-(2-amino-6-(piperazin-1-yl)pyrimidin-4-yl)benzonitrile at 30 umol/kg, ip; format: ADME, organism-based; settings: in vivo
Histamine H4 receptor [6] = target: T1, Histamine H4 receptor; settings: HEK293
[7] = target: Histamine H4 receptor (Rattus norvegicus) (UniProt Q91ZY1); assay: Agonist activity at rat histamine H4 receptor expressed in HEK293 cells coexpressing Gqi5 protein assessed as calcium flux by FLIPR assay relative to histamine; format: functional, cell-based
Histamine H4 receptor [8] = target: T2, Histamine H4 receptor; assay: Displacement of [3H]histamine from rat histamine H4 receptor expressed in HEK293 cells; format: cell-based
[9] = Half life in mouse at 20 mg/kg, po; format: ADME, organism-based; design: dose 20 mg/kg, route oral; settings: in vivo
Rattus norvegicus [10] = assay: Antiinflammatory activity against carrageenan-induced thermal hyperalgesia in rat assessed as increase in paw withdrawal at 100 umol/kg, ip relative to control; format: functional
[11] = Cmax in mouse at 20 mg/kg, po; format: ADME, organism-based; design: dose 20 mg/kg, route oral; settings: in vivo
Mus musculus [12] = assay: Antiinflammatory activity in ip dosed CD1/ICR mouse assessed as reduction of clobenpropit-induced itching; format: functional
Rattus norvegicus [13] = assay: Antiinflammatory activity against carrageenan-induced hyperalgesia in rat assessed as increase in paw withdrawal at 300 umol/kg, ip relative to control; format: functional
[14] = Cmax in rat at 10 mg/kg, po; format: ADME, organism-based; design: dose 10 mg/kg, route oral; settings: in vivo
[15] = Tmax in rat at 10 mg/kg, po; format: ADME, organism-based; design: dose 10 mg/kg, route oral; settings: in vivo
[16] = Tmax in mouse at 20 mg/kg, po; format: ADME, organism-based; design: dose 20 mg/kg, route oral; settings: in vivo
[17] = Cmax in rat at 10 mg/kg, iv; format: ADME, organism-based; design: dose 10 mg/kg, route intravenous; settings: in vivo
[18] = Half life in mouse at 5 mg/kg, iv; format: ADME, organism-based; design: dose 5 mg/kg, route intravenous; settings: in vivo
[19] = Plasma concentration in mouse at 25 umol/kg, ip after 30 mins; format: ADME, organism-based
Rattus norvegicus [20] = assay: Antiinflammatory activity against carrageenan-induced thermal hyperalgesia in ip dosed rat assessed as increase in paw withdrawal; format: functional
Mus musculus [21] = assay: Antiinflammatory activity in zymosan-induced peritonitis in sc dosed BALB/c mouse model assessed as decrease in myeloperoxidase activity in peritoneal lavage; format: functional
[22] = Bioavailability in mouse at 20 mg/kg, po; format: ADME, organism-based; settings: in vivo
[23] = Terminal volume of distribution in mouse at 5 mg/kg, iv; format: ADME, organism-based; design: dose 5 mg/kg, route intravenous; settings: in vivo, read-out: Vbeta
[24] = Half life in rat at 10 mg/kg, po; format: ADME, organism-based; design: dose 10 mg/kg, route oral; settings: in vivo
Rattus norvegicus [25] = assay: Plasma concentration in rat at 100 umol/kg, ip; format: ADME, organism-based; settings: in vivo
[26] = Terminal volume of distribution in rat at 10 mg/kg, iv; format: ADME, organism-based; design: dose 10 mg/kg, route intravenous; settings: in vivo, read-out: Vbeta
Rattus norvegicus [27] = assay: Plasma concentration in rat at 80 umol/kg, ip; format: ADME, organism-based; settings: in vivo
[28] = Protein binding in ip dosed rat plasma; format: ADME, organism-based; settings: read-out: PPB (converted)
[29] = Cmax in mouse at 5 mg/kg, iv; format: ADME, organism-based; design: dose 5 mg/kg, route intravenous; settings: in vivo
Rattus norvegicus [30] = assay: Plasma concentration in rat at 30 umol/kg, ip; format: ADME, organism-based; settings: in vivo
[31] = Half life in rat at 10 mg/kg, iv; format: ADME, organism-based; design: dose 10 mg/kg, route intravenous; settings: in vivo
[32] = Bioavailability in rat at 10 mg/kg, po; format: ADME, organism-based; settings: in vivo
Rattus norvegicus [33] = assay: Plasma concentration in rat at 300 umol/kg, ip; format: ADME, organism-based; settings: in vivo
[34] = target: Histamine H4 receptor (Rattus norvegicus) (UniProt Q91ZY1); settings: HEK293

T1 sequence (Q9H3N8 whole entry): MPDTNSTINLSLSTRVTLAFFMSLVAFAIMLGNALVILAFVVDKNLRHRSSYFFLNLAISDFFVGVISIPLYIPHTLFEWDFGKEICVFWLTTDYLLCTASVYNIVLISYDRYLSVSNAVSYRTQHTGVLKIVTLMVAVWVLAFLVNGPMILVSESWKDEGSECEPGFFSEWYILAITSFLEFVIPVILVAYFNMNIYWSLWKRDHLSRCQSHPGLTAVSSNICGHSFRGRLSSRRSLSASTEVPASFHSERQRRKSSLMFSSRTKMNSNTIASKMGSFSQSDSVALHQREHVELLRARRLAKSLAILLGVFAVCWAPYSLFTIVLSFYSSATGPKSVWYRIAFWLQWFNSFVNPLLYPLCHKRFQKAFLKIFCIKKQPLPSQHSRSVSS
T2 sequence (Q91ZY1 whole entry): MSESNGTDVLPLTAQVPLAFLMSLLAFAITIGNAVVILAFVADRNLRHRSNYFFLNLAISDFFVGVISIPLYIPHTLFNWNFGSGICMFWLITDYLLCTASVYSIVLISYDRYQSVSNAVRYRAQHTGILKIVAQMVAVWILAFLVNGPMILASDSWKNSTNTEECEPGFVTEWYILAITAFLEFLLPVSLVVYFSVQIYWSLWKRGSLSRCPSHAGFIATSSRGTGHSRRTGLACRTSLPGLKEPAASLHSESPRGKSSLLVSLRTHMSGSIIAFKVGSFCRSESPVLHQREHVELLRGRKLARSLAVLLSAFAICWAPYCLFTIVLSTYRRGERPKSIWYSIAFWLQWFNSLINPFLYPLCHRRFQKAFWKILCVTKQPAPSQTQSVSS
Chain of Histamine H4 receptor (Rattus norvegicus) (Q91ZY1 whole entry): as above
Chain of Histamine H3 receptor (Homo sapiens, UniProt Q9Y5N1) (Q9Y5N1 whole entry): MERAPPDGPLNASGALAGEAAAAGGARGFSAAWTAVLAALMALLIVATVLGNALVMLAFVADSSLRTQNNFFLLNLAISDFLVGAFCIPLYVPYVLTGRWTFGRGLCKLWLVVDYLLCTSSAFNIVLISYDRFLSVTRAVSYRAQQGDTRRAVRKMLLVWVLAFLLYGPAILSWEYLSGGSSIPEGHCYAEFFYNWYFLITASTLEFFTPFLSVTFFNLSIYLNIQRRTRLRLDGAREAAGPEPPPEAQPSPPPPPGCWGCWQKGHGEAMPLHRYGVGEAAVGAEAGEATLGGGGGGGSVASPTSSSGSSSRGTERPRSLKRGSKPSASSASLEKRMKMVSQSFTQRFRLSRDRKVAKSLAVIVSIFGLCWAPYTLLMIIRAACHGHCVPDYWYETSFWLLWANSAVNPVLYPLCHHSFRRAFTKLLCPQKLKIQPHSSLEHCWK
Chain of Histamine H4 receptor (Mus musculus, UniProt Q91ZY2) (Q91ZY2 whole entry): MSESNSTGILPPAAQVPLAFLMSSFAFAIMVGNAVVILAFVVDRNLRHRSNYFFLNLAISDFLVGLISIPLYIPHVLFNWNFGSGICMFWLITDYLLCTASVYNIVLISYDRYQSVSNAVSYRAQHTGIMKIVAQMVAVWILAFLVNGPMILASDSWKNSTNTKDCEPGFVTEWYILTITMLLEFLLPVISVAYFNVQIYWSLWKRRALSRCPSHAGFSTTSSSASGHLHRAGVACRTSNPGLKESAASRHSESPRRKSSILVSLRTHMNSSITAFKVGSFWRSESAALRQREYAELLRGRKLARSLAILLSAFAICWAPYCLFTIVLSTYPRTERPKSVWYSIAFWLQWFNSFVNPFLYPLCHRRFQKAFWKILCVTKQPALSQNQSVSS
Chain of Histamine H3 receptor (Rattus norvegicus, UniProt Q9QYN8) (Q9QYN8 whole entry): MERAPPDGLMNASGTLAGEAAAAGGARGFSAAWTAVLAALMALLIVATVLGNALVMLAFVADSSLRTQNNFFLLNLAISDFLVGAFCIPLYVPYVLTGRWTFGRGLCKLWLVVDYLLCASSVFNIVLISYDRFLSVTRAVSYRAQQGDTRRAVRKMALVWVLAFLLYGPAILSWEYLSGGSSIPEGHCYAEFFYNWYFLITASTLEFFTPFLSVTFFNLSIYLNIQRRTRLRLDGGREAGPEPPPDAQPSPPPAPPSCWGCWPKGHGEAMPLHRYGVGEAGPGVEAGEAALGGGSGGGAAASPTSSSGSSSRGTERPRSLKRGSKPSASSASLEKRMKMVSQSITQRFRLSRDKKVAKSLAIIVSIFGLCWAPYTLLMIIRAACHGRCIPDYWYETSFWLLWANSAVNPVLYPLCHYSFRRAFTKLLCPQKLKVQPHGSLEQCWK

N#Cc1ccc(-c2cc(N3CCNCC3)nc(N)n2)cc1
Ki (Histamine H3 receptor [1]): 120 nM | Ki (Histamine H4 receptor [2]): 41.7 nM | Ki (Histamine H3 receptor [3]): 933 nM | EC50 (Histamine H4 receptor [4]): 245 nM | EC50 (Histamine H4 receptor [5]): 102 nM | Drug uptake (Brain): 610 ng/mL | pKb (Histamine H4 receptor [6]): 8.08 | Efficacy [7]: 67% | Ki (Histamine H4 receptor [8]): 339 nM

CN1CCN(C(=O)c2cc3cc(Cl)ccc3[nH]2)CC1 [JNJ-7777120]
half-life [9]: 84 min | Activity (Rattus norvegicus [10]): 49% | Cmax [11]: 140 ng/mL | Ki (Histamine H3 receptor [3]): 2240 nM | ED50 (Mus musculus [12]): 25 µmol/kg | Activity (Rattus norvegicus [13]): 96% | Cmax [14]: 220 ng/mL | Tmax [15]: 15 min | Tmax [16]: 1.33 h | Cmax [17]: 1140 ng/mL | half-life [18]: 42 min | concentration at 0.5 h [19]: 860 ng/mL | ED50 (Rattus norvegicus [20]): 80 µmol/kg | ED50 (Mus musculus [21]): 61 µmol/kg | bioavailability [22]: 24% | Vd [23]: 24 L/kg | half-life [24]: 150 min | Cp (Rattus norvegicus [25]): 1454 ng/mL | Vd [26]: 37 L/kg | Cp (Rattus norvegicus [27]): 1200 ng/mL | fraction unbound [28]: 0.28 | Cmax [29]: 560 ng/mL | Cp (Rattus norvegicus [30]): 432 ng/mL | half-life [31]: 102 min | bioavailability [32]: 47% | Cp (Rattus norvegicus [33]): 4135 ng/mL

CN1CCN(c2cc(N)cc(-c3ccc(C#N)cc3)n2)CC1
pKb [34]: 5.14 | pKb (Histamine H4 receptor [6]): 5.05
